Source: the NIST ThermoML archive (doi:10.1021/je2009413)
± gives the expanded uncertainty stated by the source.

What was measured:
[1] = osmotic coefficient (dimensionless); mn = molality of the nth substance listed, in mol/kg; details: 298.15 K, Liquid, isopiestic method
[2] = mean ionic activity coefficient (dimensionless); mn = molality of the nth substance listed, in mol/kg; details: 298.15 K, Liquid, Isopiestic method

CC[N+](CC)(CC)CC(C)C.[I-] [N,N,N-triethyl-2-methyl-1-propanaminium iodide] + O
Details | mean ionic activity coefficient, [2] | osmotic coefficient, [1]
m1 = 0.0366 | 0.7118 ± 0.0001 | 0.841 ± 0.01
m1 = 0.0433 | 0.6866 ± 0.0001 | 0.828 ± 0.01
m1 = 0.0483 | 0.6687 ± 0.0001 | 0.819 ± 0.01
m1 = 0.0624 | 0.6257 ± 0.0001 | 0.795 ± 0.011
m1 = 0.0695 | 0.6067 ± 0.0001 | 0.784 ± 0.011
m1 = 0.0739 | 0.5963 ± 0.0001 | 0.778 ± 0.011
m1 = 0.0824 | 0.5764 ± 0.0001 | 0.769 ± 0.011
m1 = 0.0975 | 0.5439 ± 0.0001 | 0.751 ± 0.012
m1 = 0.1055 | 0.5296 ± 0.0001 | 0.741 ± 0.012
m1 = 0.1113 | 0.5191 ± 0.0001 | 0.736 ± 0.012
m1 = 0.12 | 0.5042 ± 0.0001 | 0.729 ± 0.012
m1 = 0.1872 | 0.4149 ± 0.0001 | 0.678 ± 0.013
m1 = 0.1889 | 0.4131 ± 0.0001 | 0.677 ± 0.013
m1 = 0.2234 | 0.3799 ± 0.0001 | 0.655 ± 0.014
m1 = 0.2618 | 0.3493 ± 0.0001 | 0.63 ± 0.015
m1 = 0.265 | 0.347 ± 0.0001 | 0.63 ± 0.015
m1 = 0.3183 | 0.3131 ± 0.0001 | 0.601 ± 0.015
m1 = 0.3626 | 0.2901 ± 0.0001 | 0.579 ± 0.016
m1 = 0.4063 | 0.2708 ± 0.0001 | 0.563 ± 0.017
m1 = 0.4229 | 0.2643 ± 0.0001 | 0.555 ± 0.017
m1 = 0.4602 | 0.2508 ± 0.0001 | 0.541 ± 0.018
m1 = 0.5128 | 0.2343 ± 0.0001 | 0.527 ± 0.018
m1 = 0.5607 | 0.2214 ± 0.0001 | 0.514 ± 0.019
m1 = 0.6289 | 0.2056 ± 0.0001 | 0.495 ± 0.02
m1 = 0.6797 | 0.1956 ± 0.0001 | 0.482 ± 0.02
m1 = 0.737 | 0.1857 ± 0.0001 | 0.469 ± 0.021
m1 = 0.749 | 0.1837 ± 0.0001 | 0.47 ± 0.021
m1 = 0.8695 | 0.1669 ± 0.0001 | 0.451 ± 0.021
m1 = 0.9418 | 0.1587 ± 0.0001 | 0.437 ± 0.022
m1 = 1.034 | 0.1496 ± 0.0001 | 0.426 ± 0.022
m1 = 1.1 | 0.144 ± 0.0001 | 0.416 ± 0.023
m1 = 1.232 | 0.1343 ± 0.0001 | 0.404 ± 0.023
m1 = 1.352 | 0.1271 ± 0.0001 | 0.392 ± 0.024
m1 = 1.465 | 0.1213 ± 0.0001 | 0.386 ± 0.024
m1 = 1.595 | 0.1156 ± 0.0001 | 0.377 ± 0.024
m1 = 1.703 | 0.1115 ± 0.0001 | 0.375 ± 0.024
m1 = 1.891 | 0.1055 ± 0.0001 | 0.373 ± 0.024
m1 = 2.044 | 0.1013 ± 0.0001 | 0.377 ± 0.024
m1 = 2.096 | 0.0994 ± 0.0001 | 0.379 ± 0.024
m1 = 2.142 | 0.0984 ± 0.0001 | 0.378 ± 0.024
m1 = 2.163 | 0.0981 ± 0.0001 | 0.381 ± 0.024
m1 = 2.254 | 0.0955 ± 0.0001 | 0.387 ± 0.024
m1 = 2.308 | 0.0941 ± 0.0001 | 0.389 ± 0.024
m1 = 2.528 | 0.0917 ± 0.0001 | 0.41 ± 0.023
